Here are results for 10 compounds from US20250051316A1, “2-(ARYL-2-YL) […] […], PREPARATION METHOD THEREFOR AND APPLICATION THEREOF” (SHANGHAI HANSOH BIOMEDICAL CO., LTD., priority 2021, published 2025).

Series [1] in a line: Pharmacokinetic assay of Balb/c mice, plasma and brain, oral. Format: in vivo. The note with it: male, mouse, p.o. 5 mg/kg. Here is the method:
Test Example 3. Pharmacokinetic Assay of Balb/c Mice
Balb/c Mice were used as test animals. The pharmacokinetic behavior of the compounds of the present invention was studied in the plasma and brain of mice administered orally at the dose of 5 mg/kg.
Balb/c Mice, male, Shanghai Jiesijie Experimental Animal Co., Ltd., animal production license number (SCXK (Shanghai) 2013-0006 N0.311620400001794).
After fasting overnight, 24 male Balb/c mice were administered p.o. at a dose of 5 mg/kg and an administration volume of 10 mL/kg, respectively.
Drug formulation for oral administration: 0.5% CMC-Na (1% Tween 80).
After CO2 euthanasia of experimental animals, heart blood and brain tissue were collected at 0.25 h, 0.5 h, 1 h, 2 h, 4 h, 6 h, 8 h, and 24 h after administration. The blood was placed in EDTA-2K tubes and centrifuged at 4° C. and 6000 rpm for 6 minutes to separate plasma. The brain tissue was washed with pre-cooled PBS, dried, weighed, and stored at −80° C. The animals were feed 4 hours after administration.
1) 160 μL of acetonitrile was added to 40 μL of the plasma sample for precipitation, and then the mixture was centrifuged at 3500×g for 5-20 min.
2) 100 μL of the supernatant was taken to analyze the concentration of the test compound by LC/MS/MS.
• Liquid chromatography condition: Shimadzu LC-20AD pump • Mass spectrometry condition: AB Sciex API 4000 mass spectrometer • Chromatographic column: phenomenex Gemiu 5 μm C18 50×4.6 mm • Mobile phase: Eluent A was 0.10% formic acid in water, and Eluent B was acetonitrile • Flow rate: […] • Elution time: 0-4.0 minutes, the eluent is as follows:
The main pharmacokinetic parameters were calculated using WinNonlin8.1, and the results of the pharmacokinetic experiments in mouse are shown in the table below.

The test system of series [2] is C57BL/6 mice, high spontaneous activity induced by phencyclidine (PCP). Nature of the series: High spontaneous activity model of mice induced by phencyclidine (PCP). The note with it: 60 minutes after modeling. In kind it is in vivo. The text has this: Test Example 2. Pharmacodynamic Evaluation of the Present Compounds in Mice Model of High Spontaneous Activity Induced by Phencyclidine (PCP)
The purpose of the experiment is to evaluate the efficacy of compounds in a high spontaneous activity model of C57BL/6 mice induced by phencyclidine (PCP) using the spontaneous activity method.
C57BL/6 mice, provided by Shanghai Lingchang Biotechnology Co., Ltd., male, 6-8 weeks, 20-24 g, 36 mice.
The day before the experimental test, the animals were placed in the laboratory and acclimated for 8 hours.
On the day of adaptation, the animals were randomly grouped according to their weight.
The animals were weithed and treated with solvent control (20% HP-3-CD), compounds of the present invention (oral administration) respectively. 30 minutes later, modeling (intraperitoneal administration) was performed, and the animals were given physiological saline or phencyclidine, with dosage volume of 10 mL/kg.
After the administration, the animals were placed in observation box and the spontaneous activity was detected for 30 minutes. The moving distance (meters) of the animals in the observation box was counted every 5 minutes.
After 30 minutes, the animals were taken out for modeling and then placed in the observation box to test their spontaneous activity for 60 minutes. The moving distance (meters) of the animals in the observation box was counted every 5 minutes.
Excel software was used to collect data. A Two-Way ANOVA or One-Way ANOVA was conducted used Prism (Graph pad software, Inc.) software. p<0.05 was considered significant difference.

In the next series the target is T1, TAAR1 receptor (Homo sapiens, UniProt Q96RJ0).
T1 construct: expressed in transfected cells
T1 sequence (Q96RJ0 1-339): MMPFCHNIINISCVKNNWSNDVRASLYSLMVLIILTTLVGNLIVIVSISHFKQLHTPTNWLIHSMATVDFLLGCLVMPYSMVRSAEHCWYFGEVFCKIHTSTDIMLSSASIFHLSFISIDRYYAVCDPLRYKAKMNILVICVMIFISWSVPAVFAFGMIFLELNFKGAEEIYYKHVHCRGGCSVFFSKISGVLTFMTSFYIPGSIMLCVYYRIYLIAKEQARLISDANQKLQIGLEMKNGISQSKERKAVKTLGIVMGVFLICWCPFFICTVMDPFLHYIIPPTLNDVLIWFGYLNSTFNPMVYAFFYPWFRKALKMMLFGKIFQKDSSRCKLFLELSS
In words: Effect on cAMP content in cells which stably express TAAR1 receptor. In kind it is cell-based. Here is the method: Test Example1. Determination of the effect of the present compound on cAMP content in cells which stably express TAAR1 receptor
Determination of the activation effect of compounds on TAAR1 receptors.
• 1) Preparation of experimental buffer: 1*HBSS+20 mM HEPES+0.1% BSA+500 μM IBMX. • 2) Complete medium: • Ham's F12K+10% Fetal Bovine Serum+1*Penicillin-Streptomycin+200 μg/mL Hygromycin B for CHO • DMEM+10% Fetal Bovine Serum+1*Penicillin-Streptomycin+200 μg/mL Hygromycin B for HEK293 • 3) TAAR1 cell line was cultured in complete medium at 37° C. and 5% CO2; After TrypLE digestion, the cells were resuspended in the experimental buffer and seeded into a 384 cell culture plate with a density of 8000 cells/15 ul/well. • 4) The compound was diluted with experimental buffer and added 5 μL to each well to culture at 37° C. for 30 minutes. • 5) cAMP-d2 and Anti cAMP Eu3+ were freeze thaw, and diluted 20 times with lysis buffer; 10 μL cAMP-d2 was added to the experimental well, and then 10 μL Anti cAMP Eu3+ was added into the experimental well; the reaction plate was centrifuged at 200 g for 30 seconds at room temperature, and stand at 25° C. for 1 hour; data was collected by Envision.
[formula] • 5) EC50 of compounds was calculated using GraphPad nonlinear fitting formula:
[formula] • X: Log value of the compound concentration; Y: Activation %

As a reminder, the AUC(0-t) is exposure summed from dosing to a finite time, without extrapolation to infinity. Higher therefore signals high exposure. Broadly, the Cmax is the peak of the concentration-time curve. By Tmax is commonly meant the time from dosing to the highest level. One may read the half-life as the time in which the quantity being followed falls by half. By EC50 is commonly meant the midpoint of the concentration-response curve. With `[2H]c1ccc(C2CNCCO2)cc1` (single isomer, unassigned) [Example 28-2, 2-(phenyl-4-d)morpholine], in series [1] (Brain), the AUC(0-t) came out at 3980 ng·h/mL, the Cmax is 2110 ng/mL, the Tmax was 15 min and the half-life was 78 min. In series [1] (Plasma), the AUC(0-t) worked out at 2820 ng·h/mL, the concentration peaked (Cmax) at 1340 ng/mL, the Tmax turned out to be 15 min and the half-life is 84 min. In series [2] (compound 3 mg/kg oral + PCP 5 mg/kg i.p.), the “Total distance (m, Mean ± SEM) 60 minutes” value is on record as 113.09 ± 12.69 m. At TAAR1 receptor, this compound displayed an EC50 of 3 nM.

For `Clc1cccc(C2CNCCO2)c1` (single isomer, unassigned) [Example 46-1, 2-(3-Chlorophenyl)morpholine], the EC50 at TAAR1 receptor amounted to 17.7 nM.

As for `[2H]c1ccc([C@H]2CNCCO2)nc1` (single isomer, unassigned) [Example 6-2, 2-(pyridin-2-yl-5-d)morpholine], in series [1] (Brain), the AUC(0-t) is 6480 ng·h/mL, the Cmax was found to be 3030 ng/mL, the Tmax was 15 min and the half-life is 48 min. In series [1] (Plasma), the AUC(0-t) was 4300 ng·h/mL, the peak concentration (Cmax) was 2050 ng/mL, the Tmax worked out at 15 min and the half-life was 48 min. For the same compound, the 50% effective concentration (EC50) at TAAR1 receptor was found to be 3.4 nM.

On TAAR1 receptor, `Fc1cccc([C@@H]2CNCCO2)c1` [Example 48-1] gave an EC50 of 2.1 nM.

As for `c1ccc(C2CNCCO2)nc1` (stereo not shown) [Compound A, 2-(Pyridin-2-yl)morpholine], the “Total distance (m, Mean ± SEM) 60 minutes” value in series [2] (compound 6 mg/kg oral + PCP 5 mg/kg i.p.) is listed as 113.09 ± 12.69 m. The compound also returned an EC50 at TAAR1 receptor of 7.1 nM.

For the compound `[2H]C1([2H])COC(c2cc(C)ccn2)CN1` (single isomer, unassigned) [Example 16-1, 2-(4-Methylpyridin-2-yl)morpholin-5,5-d2], in series [1] (Brain), the AUC(0-t) is 5630 ng·h/mL, the Cmax was 1740 ng/mL, the Tmax turned out to be 15 min and the half-life is 174 min. In addition, in series [1] (Plasma), the AUC(0-t) was found to be 2270 ng·h/mL, the Cmax was found to be 890 ng/mL, the Tmax is 15 min and the half-life is 114 min. The EC50 at TAAR1 receptor was found to be 21.3 nM.

`Cc1cccc([C@@H]2CNCCO2)c1` [Example 47-2]: the response at TAAR1 receptor was half-maximal at 11.5 nM (EC50).

Take `Cc1nc([C@@H]2CNCCO2)ccc1F` (single isomer, unassigned) [Example 19-2, 2-(5-fluoro-6-methyl-2-pyridyl)morpholine]: in series [1] (Brain), the AUC(0-t) amounted to 8640 ng·h/mL, the Cmax was 2510 ng/mL, the time of peak concentration (Tmax) came out at 120 min and the half-life was 66 min. In series [1] (Plasma), the AUC(0-t) was found to be 2760 ng·h/mL, the concentration peaked (Cmax) at 705 ng/mL, the Tmax was 120 min and the half-life is 222 min. This compound also gave an EC50 at TAAR1 receptor of 13.6 nM.

In the case of `[2H]c1ccnc([C@@H]2CNCCO2)c1` (single isomer, unassigned) [Example 7-2, 2-(pyridin-2-yl-4-d)morpholine], in series [1] (Brain), the AUC(0-t) came to 4410 ng·h/mL, the peak level (Cmax) was 2500 ng/mL, the Tmax was 30 min and the half-life is 54 min. Moreover, in series [1] (Plasma), the AUC(0-t) turned out to be 2840 ng·h/mL, the highest level (Cmax) was 1560 ng/mL, the Tmax stood at 30 min and the half-life is 48 min. Besides, the EC50 at TAAR1 receptor came to 5.9 nM.

`Clc1ccc(C2CNCCO2)nc1` (single isomer, unassigned) [Example 25-2] came in with an EC50 on TAAR1 receptor of 207 nM.
